The source of these data is US20230220021A1, “CYCLIC PEPTIDE INHIBITORS OF PSD-95 AND USES THEREOF” (University of Copenhagen, priority 2020, published 2023).

Where a SMILES comes first, the peptide text is derived from it. [ ]: non-standard residue; d: D form.

The target of assay [1] is T1, PSD-95-PDZ2 (Homo sapiens, UniProt P78352, V178C).
T1 construct: screened with the TAMRA labelled PSD-95-PDZ2-V178C domain; 7xHis (N); made in house
The assay is described as follows: SPOT peptide array screening with TAMRA labelled PSD-95-PDZ2. Particulars: SPOT array, TAMRA labelled PSD-95-PDZ2-V178C, normalized to WT. The class given is binding. As to the method: SPOT peptide array synthesis. To generate the cyclic nNOSβ-hairpin arrays, we used the Intavis MultiPep spotter (Intavis Bioanalytical instruments). The membranes employed in this assay were SynthoPlan APEG CE (standard amino-modified acid stable sellulose membrane with a PEG-spacer), 10×15 cm with a loading of 400 nmol cm^−2. Solutions of 0.3 M Fmoc-AA-OH and 0.3 M Oxyma Pure were prepared in N-methyl-2-pyrrolidone (NMP). The activator solution consisted of 0.3 M DIC and 0.3 M of 2,4,6-trimethylpyridine (Collidine) in NMP. The capping solution consisted of a solution of 1 M acetic anhydride and 0.05 M of 4-dimethylaminopyridine (DMAP) in NMP. The deprotection solution consisted of 20% piperidine in NMP. AA couplings were performed 1 h,4 times. Deprotection of the Fmoc groups was performed 15min,2 times. Membrane washing between couplings or deprotections was performed with NMP and ethanol. Elongation of peptides in cellulose membrane was started by coupling first the Fmoc-PEG(9)-OH (Iris Biotech) and the subsequent mixture of Fmoc-Gly-OH (25%) and Boc-Gly-OH (75%) to lower the total loading of the membrane. Afterwards, the resin was capped with the capping solution and extensively washed and soaked in bromophenol blue (BPB) as a quality control to reveal the SPOTS with a functional amino group. Then, we coupled the quasi-orthogonal group Fmoc-Glu-PP, and carried out the rest of the synthesis until peptide completion. The cellulose bound linear peptides were finally treated with a solution of 95% DCM, 3% TIPS and 2% TFA 3 times, 20 min. to remove the quasi-orthogonal group. Afterwards, the membrane was washed 5 times with DCM and neutralized with 5% DIPEA in DCM. The membrane was then washed 5 more times with DCM, 5 times with NMP and cyclized with 0.3M PyAOP and 0.3M of DIPEA in DMF for 3 h or overnight. Finally, the membrane was dried with DCM and the side-chain protecting groups were cleaved with the standard deprotection cocktail (95% TFA, 2.5% H2O and 2.5% TIPS) or with reagent K [TFA 82.5%, phenol 5%, H2O 5%, thioanisole 5% and 1,2-ethanedithiol (EDT) 2.5%] for 3 h.
SPOT membrane screening. Membranes were incubated with PBS pH 7.2+0.5% bovine serum albumin (BSA) for 1 h. After the incubation period, the membrane was dried and scanned with an Amershan Typhoon scanner, at 400V, Cy3 wavelength (532 nm). A TIF file of the screening and a file with the blank values were generated using the Image Quant software. Afterwards, a solution of 50 nM of TAMRA labelled PSD-95-PDZ2 domain was prepared in PBS pH 7.2+0.5% BSA and was added to the membrane. The membrane was left incubating in a Polymax 1040 rocking table for 1 h protected from the light. Passed the incubation time, the excess of labelled protein was removed by washing the membrane 3 times with PBS+0.5% BSA. Finally, the membrane fluorescence values were measured with the Amershan Typhoon scanner at 400V, Cy3 wavelength (532 nm). Using the Image Quant software, the TIF image of the screening and a file with the fluorescence values of the peptides with the TAMRA labelled PSD-95-PDZ2 were generated. The blank was then subtracted from the fluorescence values of the peptides screened against the TAMRA labelled PSD-95-PDZ2.
A deep mutational scan was performed on the WT scaffold, exchanging each AA to the remaining 19 L-AAs. Each array contained three copies of the individual peptides as technical replicates. Additionally, three controls were included in the design: the cyclic nNOS β-hairpin WT control (positive control), a linear nNOS peptide (cyclization control) and a cyclic nNOS β-hairpin with a F111V substitution (negative control previously tested in FP competition assays). For array screening, a mutation in PSD-95-PDZ2 residue V178 (PSD-95-PDZ2-V178C) was introduced, which was subsequently labelled with TAMRA maleimide. […]

Assay [2] has as its target T2, PSD-95-PDZ2 (Homo sapiens, UniProt P78352).
T2 construct: 7xHis (N); made in house; host or cells: Escherichia coli B21 pLys (for the mutants, 'as previously described')
The assay is described as follows: Fluorescence polarization (FP) competition assay against cyclic nNOS TAMRA probe. The format is binding. Particulars: FP inhibition constant normalized to WT value. (Fluorescence polarisation rises when a labelled molecule tumbles more slowly, as on binding a larger partner.)

With `CC[C@H](C)[C@@H]1NC(=O)[C@H]([C@@H](C)O)NC(=O)[C@H](CCCCN)NC(=O)[C@@H]2CCCN2C(=O)[C@H]([C@@H](C)O)NC(=O)CNC(=O)[C@H](CC(=O)O)NC(=O)CNC(=O)[C@H]([C@@H](C)O)NC(=O)[C@H](Cc2ccccc2)NC(=O)[C@H](C)NC(=O)[C@H]([C@@H](C)O)NC(=O)[C@H](CCC(=O)O)NC(=O)[C@H](CC(C)C)NC(=O)[C@H](Cc2c[nH]cn2)NC(=O)[C@H]([C@@H](C)O)NC(=O)[C@H](CCC(N)=O)NC(=O)CNC(=O)[C@H]2CCCN2C(=O)[C@H](CCC(N)=O)NC(=O)[C@H]([C@@H](C)O)NC(=O)[C@H](C(C)C)NC(=O)[C@H](CCCNC(=N)N)NC1=O` [compound 60] (cyclo(THLETAFTGDGTPKTIRVTQ[dP]GQ)), on PSD-95-PDZ2 [1], the “Normalized SPOT fluorescence (Mut/WT)” value turned out to be 0.66. Moreover, at PSD-95-PDZ2 [2], the “Relative Ki (Ki mut/Ki WT)” value amounted to 2.62.
For `CC[C@H](C)[C@@H]1NC(=O)[C@H]([C@@H](C)O)NC(=O)[C@H](CCCCN)NC(=O)[C@@H]2CCCN2C(=O)[C@H]([C@@H](C)O)NC(=O)CNC(=O)[C@H](CC(=O)O)NC(=O)CNC(=O)[C@H](C)NC(=O)[C@H](Cc2ccccc2)NC(=O)[C@H]([C@@H](C)O)NC(=O)[C@H]([C@@H](C)O)NC(=O)[C@H](CCC(=O)O)NC(=O)[C@H](CC(C)C)NC(=O)[C@H](Cc2c[nH]cn2)NC(=O)[C@H]([C@@H](C)O)NC(=O)[C@H](CCC(N)=O)NC(=O)CNC(=O)[C@H]2CCCN2C(=O)[C@H](CCC(N)=O)NC(=O)[C@H]([C@@H](C)O)NC(=O)[C@H](C(C)C)NC(=O)[C@H](CCCNC(=N)N)NC1=O` [compound 62] (cyclo(THLETTFAGDGTPKTIRVTQ[dP]GQ)), on PSD-95-PDZ2 [1], the “Normalized SPOT fluorescence (Mut/WT)” value is recorded as 0.97. Further, at PSD-95-PDZ2 [2], the “Relative Ki (Ki mut/Ki WT)” value was 1.18.
For `CC[C@H](C)[C@@H]1NC(=O)[C@H]([C@@H](C)O)NC(=O)[C@H](CCCCN)NC(=O)[C@@H]2CCCN2C(=O)[C@H]([C@@H](C)O)NC(=O)CNC(=O)[C@H](CC(=O)O)NC(=O)[C@H](C)NC(=O)[C@H]([C@@H](C)O)NC(=O)[C@H](Cc2ccccc2)NC(=O)[C@H]([C@@H](C)O)NC(=O)[C@H]([C@@H](C)O)NC(=O)[C@H](CCC(=O)O)NC(=O)[C@H](CC(C)C)NC(=O)[C@H](Cc2c[nH]cn2)NC(=O)[C@H]([C@@H](C)O)NC(=O)[C@H](CCC(N)=O)NC(=O)CNC(=O)[C@H]2CCCN2C(=O)[C@H](CCC(N)=O)NC(=O)[C@H]([C@@H](C)O)NC(=O)[C@H](C(C)C)NC(=O)[C@H](CCCNC(=N)N)NC1=O` [compound 63] (cyclo(THLETTFTADGTPKTIRVTQ[dP]GQ)), in that order: 0.68 and 3.03.
For `CC[C@H](C)[C@@H]1NC(=O)[C@H]([C@@H](C)O)NC(=O)[C@H](CCCCN)NC(=O)[C@@H]2CCCN2C(=O)[C@H]([C@@H](C)O)NC(=O)CNC(=O)[C@H](C)NC(=O)CNC(=O)[C@H]([C@@H](C)O)NC(=O)[C@H](Cc2ccccc2)NC(=O)[C@H]([C@@H](C)O)NC(=O)[C@H]([C@@H](C)O)NC(=O)[C@H](CCC(=O)O)NC(=O)[C@H](CC(C)C)NC(=O)[C@H](Cc2c[nH]cn2)NC(=O)[C@H]([C@@H](C)O)NC(=O)[C@H](CCC(N)=O)NC(=O)CNC(=O)[C@H]2CCCN2C(=O)[C@H](CCC(N)=O)NC(=O)[C@H]([C@@H](C)O)NC(=O)[C@H](C(C)C)NC(=O)[C@H](CCCNC(=N)N)NC1=O` [compound 64] (cyclo(THLETTFTGAGTPKTIRVTQ[dP]GQ)), in that order: 1.80 and 2.15.
